Measurements as given in US6818630B1, “Biologically active materials” (ML Laboratories PLC, priority 1999, dated 2004).

System: B16F10 murine melanoma
Test: Anticancer activity and survival in C57 black mice bearing s.c. B16F10 melanoma
Type: in vivo, mouse
Method: Twenty four C57 black mice were injected subcutaneously (s.c.) with 10^5 B16F10 murine melanoma cells as described above and then monitored daily for well-being and the presence of palpable tumours. When the tumours were palpable, mice were randomly assigned into groups of six and their tumours measured with a micrometer gauge. Tumour size and mouse body weight is recorded. Each group is then injected intra-peritoneally with either sterile saline (negative control), free doxorubicin (5 mg kg^−1) in sterile saline or dextrin-doxorubicin (11.8 wt %, 34% succinolyation) at either 5 mg kg^−1 or 10 mg kg^−1, on days 0,1 and 2. The mice were monitored daily and tumour size and body weight recorded. Once the tumour area exceeded 2.89 cm^2 the mice were culled according to UKCCCR guidelines. Mouse survival is then expressed as % T/C (test/control saline).

## COc1cccc2c1C(=O)c1c(O)c3c(c(O)c1C2=O)C[C@@](O)(C(=O)CO)C[C@@H]3O[C@H]1C[C@H](N)[C@H](O)[C@H](C)O1 [doxorubicin]
5 mg kg^-1 i.p.
  anticancer activity: not active
  body weight / toxicity: drop in body weight consistent with toxicity
5 mg kg^-1 i.p. on day 0,1,2
  Toxic deaths: 0/6
5 mg kg^-1 i.p. on day 0,1,2, N = 6
  Days survival after treatment (mean ± SD): 4.5 ± 0.5^ns days
5 mg kg^-1 i.p. on day 0,1,2, survival test/control saline
  T/C (%): 103%
